Results as given in patent US20170362210A1, “ANTI-ESTROGENIC COMPOUNDS” (PFIZER INC., priority 2015, published 2017).
Read-outs that look alike come from different tables or passages of the source.

Columns and labels:
[1] = tested on: AP activity in ECC-1 cells; assay: Alkaline phosphatase (AP) assay in ECC-1 uterine cells, induction of AP activity; format: cell-based, human; conditions: 3 days, normalized to 500 pM E2, maximum activity observed regardless of dose
Experimental: (§1) Method for performing the alkaline phosphatase (AP) assay. ECC-1 cells (American Type Culture Collection, Manassas, Va.) were maintained in RPMI medium plus 10% fetal bovine serum at 37° C. At the beginning of the assay trypsinized cells were resuspended in RPMI medium plus 5% charcoal dextran stripped serum (CDSS, (Hyclone, Logan, Utah)) and plated at a density of 25-50 k cells per well into a 96-well plate for at least 6 hours. Representative compounds were diluted in serum-free medium and added 1:1 to plated cells in replicate wells (2.5% CDSS final). Plates were incubated for 3 days at 37° C. and subsequently frozen at −80° C. to lyse cells after removing the medium. Thawed plates were incubated with a chromogenic substrate of AP, p-nitrophenyl phosphate (Invitrogen, Grand Island, N.Y.), for 40 minutes at 40° C. Absorbances were read at 405 nm using a plate spectrophotometer. AP activity was normalized to 500 pM 17β-estradiol (E2), reported as the maximum activity observed for each individual experiment, regardless of dose.

[2] = tested on: AP activity in ECC-1 cells; assay: Alkaline phosphatase (AP) assay in ECC-1 cells co-treated with 500 pM E2; format: cell-based, human; conditions: 3 days
Experimental: as §1
AP activity was assayed as in Example 28 but cells were co-treated with 500 pM E2.

[3] = target: T1, ERα (Homo sapiens, UniProt P03372); assay: ERα expression in MCF-7 cell lysates (immunoblot); format: cell-based; conditions: MCF-7 cells, 100 nM compound, serum-free medium, 24 hours, immunoblot band intensity
T1 construct: ERα expression was detected in MCF-7 cell lysates treated with 100 nM antiestrogens in serum-free medium for 24 hours; endogenous in cells; host or cells: MCF-7
T1 sequence (P03372 1-595): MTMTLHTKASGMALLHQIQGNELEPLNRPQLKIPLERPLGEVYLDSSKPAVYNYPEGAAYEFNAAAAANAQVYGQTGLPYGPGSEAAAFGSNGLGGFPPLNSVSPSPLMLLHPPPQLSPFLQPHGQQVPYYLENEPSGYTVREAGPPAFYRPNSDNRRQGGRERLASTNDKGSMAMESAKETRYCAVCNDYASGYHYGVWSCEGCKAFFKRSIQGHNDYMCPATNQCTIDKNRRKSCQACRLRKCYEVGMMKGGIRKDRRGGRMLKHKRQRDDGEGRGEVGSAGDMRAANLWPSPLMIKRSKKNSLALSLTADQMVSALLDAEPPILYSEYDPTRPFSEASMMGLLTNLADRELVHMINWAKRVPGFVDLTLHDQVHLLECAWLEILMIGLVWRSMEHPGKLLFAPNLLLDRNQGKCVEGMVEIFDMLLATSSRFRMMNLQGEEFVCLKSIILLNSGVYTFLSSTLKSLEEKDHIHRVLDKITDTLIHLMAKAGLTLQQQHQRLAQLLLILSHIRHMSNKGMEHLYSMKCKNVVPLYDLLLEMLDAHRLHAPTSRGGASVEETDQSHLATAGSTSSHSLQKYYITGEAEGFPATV
Experimental: ERα expression was detected in MCF-7 cell lysates treated with 100 nM antiestrogens in serum-free medium for 24 hours and immunoblotted with an antibody specific to ERα.
Band intensity was normalized relative to vehicle for each individual experiment and listed in Table 3 (Relative change ERα levels (% vehicle)).

[4] = tested on: MCF-7 breast cancer cells; assay: Inhibition of E2-stimulated proliferation of MCF-7 breast cancer cells; format: cell-based, human; conditions: 100 pM E2, hormone-depleted medium, 6-8 days
Experimental: Proliferation of MCF-7 breast cancer cells was measured using a fluorescent DNA binding dye 6-8 days after treatment in triplicate with representative compounds in the presence of 100 pM E2 in hormone-depleted medium. IC50's were calculated from individual experiments as in Example 25.

[5] = tested on: estrogen-responsive reporter gene (ERE-tk109-Luc) in MCF-7 cells; assay: Inhibition of E2-induced transcription, ERE-tk109-Luc reporter gene in MCF-7 cells; format: cell-based, human; conditions: 100 pM 17β-estradiol (E2), 18-22 hours, read-out: IC50, inhibition of E2-induced transcription in breast cells
Experimental: Representative compounds were tested for their inhibitory activity of estrogen according to the assay methods described in Hodges-Gallagher, L., Valentine, C. V., El Bader, S. and Kushner, P. J. (2007) “Histone Deacetylase Inhibitors Enhance the Efficacy of Hormonal Therapy Agents on Breast Cancer Cells and Blocks Anti-estrogen-Driven Uterine Cell Proliferation” Breast Cancer Res Treat, November; 105(3):297-309. Specifically, an estrogen-responsive reporter gene (ERE-tk109-Luc) was transiently transfected into MCF-7 cells and treated with anti-estrogens in triplicate in the presence of 100 pM 17β-estradiol (E2) for 18-22 hours. Luciferase activity was normalized to activity of E2 alone and IC50's were calculated using the least squares fit method.

[6] = Homo sapiens, MCF7, MCF-7 cells

Row | SMILES | Induction of AP activity in uterine cells (% E2) [1] | AP activity (% E2), cells co-treated with 500 pM E2 [2] | Relative change ERα levels (% vehicle) [3] | IC50 ([4]; MCF-7 cells) | IC50 ([5]; MCF-7 cells) | IC50 [4, 6] | IC50 [5, 6]
1 | CCCN1CC(Cc2ccc(C3Oc4cc(O)ccc4C(C)=C3c3ccc(O)cc3)cc2F)C1 (single isomer, unassigned) [Compound 113, 2-(3-fluoro-4-((1-propylazetidin-3-yl)methyl)phenyl)-3-(4-hydroxyphenyl)-4-methyl-2H-chromen-7-ol] | 17 % E2 | 15 % E2 | 38 % veh | 24 nM | 13 nM | – | –
2 | CCCN1CC(Oc2ccc(C3Oc4cc(O)ccc4C(C)=C3c3ccccc3)cc2)C1 (single isomer, unassigned) [Compound 117, 4-methyl-3-phenyl-2-(4-((1-propylazetidin-3-yl)oxy)phenyl)-2H-chromen-7-ol] | 16 % E2 | 8 % E2 | 45 % veh | 33 nM | 4 nM | – | –
3 | CCCN1CC(Oc2ccc(C3Oc4cc(O)ccc4C(C)=C3c3ccccc3)cc2)C1 (single isomer, unassigned) [Compound 118, 4-methyl-3-phenyl-2-(4-((1-propylazetidin-3-yl)oxy)phenyl)-2H-chromen-7-ol] | 104 % E2 | 16 % E2 | 55 % veh | 132 nM | 254 nM | – | –
4 | CCCN1CC(Cc2ccc(C3Oc4cc(O)ccc4C(C)=C3c3ccc(O)cc3)cc2)C1 (centres unmarked) [Compound 101, 3-(4-hydroxyphenyl)-4-methyl-2-(4-((1-propylazetidin-3-yl)methyl)phenyl)-2H-chromen-7-ol] | 9 % E2 | 8 % E2 | 51 % veh | – | – | 7 nM | 3 nM
5 | CCCN1CC(Oc2ccc(C3Oc4cc(O)ccc4C(C)=C3c3ccc(O)cc3)cc2)C1 (centres unmarked) [Compound 104, 3-(4-hydroxyphenyl)-4-methyl-2-(4-((1-propylazetidin-3-yl)oxy)phenyl)-2H-chromen-7-ol] | 5 % E2 | 4 % E2 | 44 % veh | – | – | 6 nM | 2 nM
6 | CCCN1CC(Oc2ccc(C3Oc4cc(O)ccc4C(C)=C3c3ccccc3C(C)C)cc2)C1 (centres unmarked) [Compound 119, 3-(2-isopropylphenyl)-4-methyl-2-(4-((1-propylazetidin-3-yl)oxy)phenyl)-2H-chromen-7-ol] | 44 % E2 | 18 % E2 | 36 % veh | – | – | 33 nM | 15 nM
7 | CCCN1CC(Oc2ccc(C3Oc4cc(O)ccc4C(C)=C3c3ccccc3Cl)cc2)C1 (centres unmarked) [Compound 120, 3-(2-chlorophenyl)-4-methyl-2-(4-((1-propylazetidin-3-yl)oxy)phenyl)-2H-chromen-7-ol] | 12 % E2 | 14 % E2 | 61 % veh | – | – | 10 nM | 8 nM
